Reference: the NIST ThermoML archive (doi:10.1016/j.tca.2012.04.030)
± gives the expanded uncertainty stated by the source.

Experiments:
[1] = refractive index (Na D-line) (dimensionless); an = ratio of the nth substance listed; conditions: 101 kPa, Liquid, Standard Abbe refractometry
[2] = an = ratio of the nth substance listed; conditions: for surface tension liquid-gas: Ring tensiometer; for viscosity / mass density: 101 kPa, Liquid; for viscosity: Concentric cylinders viscometry; for mass density: Vibrating tube method

O=C(CO)[C@@H](O)[C@H](O)[C@H](O)CO [D-fructose] + C[N+](C)(C)CCO.[Cl-]
Conditions	mass density, [2] [kg/m3]	refractive index, [1]	surface tension liquid-gas, [2] [mN/m]	viscosity, [2] [mPa·s]
298.15 K, a2 = 1	1337 ± 1.6	1.523 ± 0.014	70.4 ± 1.1	14347 ± 1800
298.15 K, a2 = 1.5	1303.6 ± 1.5	1.521 ± 0.014	73.6 ± 1.2	12772 ± 1600
298.15 K, a2 = 2	1277.9 ± 1.5	1.519 ± 0.014	74 ± 1.2	11733 ± 1400
298.15 K, a2 = 2.5	1259 ± 1.4	1.522 ± 0.014	75 ± 1.2	17646 ± 2200
308.15 K, a2 = 1	1331.6 ± 1.6	1.521 ± 0.014	68 ± 1.1	7722.9 ± 920
308.15 K, a2 = 1.5	1298.2 ± 1.5	1.519 ± 0.014	71.7 ± 1.2	7126.1 ± 840
308.15 K, a2 = 2	1272.5 ± 1.4	1.518 ± 0.014	72 ± 1.2	6137.1 ± 720
308.15 K, a2 = 2.5	1253.7 ± 1.4	1.52 ± 0.014	73 ± 1.2	8556.6 ± 1000
318.15 K, a2 = 1	1326.2 ± 1.6	1.52 ± 0.014	66 ± 1.1	4050.5 ± 470
318.15 K, a2 = 1.5	1292.7 ± 1.5	1.517 ± 0.014	69.5 ± 1.1	3071 ± 350
318.15 K, a2 = 2	1266.9 ± 1.4	1.515 ± 0.014	70 ± 1.1	2457 ± 280
318.15 K, a2 = 2.5	1248.5 ± 1.4	1.517 ± 0.014	71 ± 1.1	4461.7 ± 520
328.15 K, a2 = 1	1320.7 ± 1.6	1.518 ± 0.014	64.4 ± 1.1	1415.9 ± 160
328.15 K, a2 = 1.5	1287.3 ± 1.5	1.515 ± 0.014	67.3 ± 1.1	1271.1 ± 140
328.15 K, a2 = 2	1261.2 ± 1.4	1.514 ± 0.014	68 ± 1.1	1261.7 ± 140
328.15 K, a2 = 2.5	1243.3 ± 1.4	1.516 ± 0.014	69 ± 1.1	1267.5 ± 140
338.15 K, a2 = 1	1315.2 ± 1.6	1.515 ± 0.014	62.6 ± 1	806.5 ± 86
338.15 K, a2 = 1.5	1281.8 ± 1.5	1.512 ± 0.014	65.6 ± 1.1	698.4 ± 74
338.15 K, a2 = 2	1255.5 ± 1.4	1.511 ± 0.014	66 ± 1.1	570.7 ± 61
338.15 K, a2 = 2.5	1237.9 ± 1.4	1.514 ± 0.014	67 ± 1.1	615.4 ± 65
348.15 K, a2 = 1	1309.3 ± 1.5	1.513 ± 0.014	61 ± 1	459.7 ± 48
348.15 K, a2 = 1.5	1275.9 ± 1.5	1.511 ± 0.014	63 ± 1	353.1 ± 37
348.15 K, a2 = 2	1249.7 ± 1.4	1.509 ± 0.014	64 ± 1	285.3 ± 30
348.15 K, a2 = 2.5	1232.4 ± 1.3	1.512 ± 0.014	65 ± 1.1	325.5 ± 34
358.15 K, a2 = 1	1303.1 ± 1.5	1.512 ± 0.014	59 ± 0.96	280.6 ± 29
358.15 K, a2 = 1.5	1269.7 ± 1.4	1.509 ± 0.014	61.3 ± 1	236.1 ± 24
358.15 K, a2 = 2	1241.9 ± 1.4	1.507 ± 0.014	62 ± 1	129.3 ± 13
358.15 K, a2 = 2.5	1226.9 ± 1.3	1.51 ± 0.014	63 ± 1	182.6 ± 19
